Test results reported in BindingDB's records for doi:10.1021/jm049408n (University of Camerino, 2005).

Target: Adenosine receptor A3 (Bos taurus)
Experiment: Displacement of [125I]AB-MECA from adenosine A3 receptors in bovine cortical membranes

SMILES: CNC(=O)[C@H]1O[C@@H](n2cnc3c(NCc4cccc(I)c4)ncnc32)[C@](C)(O)[C@@H]1O [3,4-Dihydroxy-5-[6-(3-iodo-benzylamino)-purin-9-yl]-4-methyl-tetrahydro-furan-2-carboxylic acid methylamide]
- Ki: 240 nM
